The target of experiment [1] is HLA-A2.1 (Homo sapiens, UniProt P04439, D140Y/D185E/D98H/E176V/E277Q/G131W/G231S/I119V/I121R/I166T/I218V/L300P/L318F/N151K/N90K/P208A/P217A/Q86G/Q94H/R138H/R169H/T345S). Description: T2 binding assay. The following applies: 9-10 mer epitopes.
The test system of experiment [2] is CD8+ T-cells. Type of experiment: cell-based, human.
The test system of experiment [3] is CD8+ T-cells. Type of experiment: cell-based, human. This is another data set of the same source.
The target of experiment [4] is T1, human HLA-A2.1 on T2 cells (human).
T1 construct: whole, on cells; Empty or peptide-receptive HLA-A2.1 on TAP-deficient T2 cells; also called HLA-A*0201; class I MHC molecules
Nature of the experiment: T2 binding assay (HLA-A2 on T2 cells, flow cytometry). In general terms: In flow cytometry, cells or beads pass a laser one at a time.

In the case of “FEFVGEFFTD [GPC3 142-151, peptide and HLA-A2.1 pentamer loaded with it]”, the “binding affinity of optimum HLA-A2-binding epitopes” value (“binding affinity” below) in experiment [1] is “strong binding affinity”. In experiment [2], the “Median pentamer+/CD8+ cells (range)” value was 0.47 (0.03-0.90) %, the “No. with pentamer + cluster” value is given as 2 (22) and the “No. with pentamer + cluster (%)” value is 2 (22) %.

In the case of “SLTPQAFEFV [GPC3 136-145, peptide and HLA-A2.1 pentamer loaded with it]”, in experiment [1], the “binding affinity” value was “strong binding affinity”. Further, in experiment [2], the “Median pentamer+/CD8+ cells (range)” value is recorded as 0.70 (0.05-1.30) %, the “No. with pentamer + cluster” value is on record as 4 (50) and the “No. with pentamer + cluster (%)” value is on record as 4 (50) %.

Turning to “CINGVCWTV [NS3 1073, reference compound]”, in experiment [2], the “Median pentamer+/CD8+ cells (range)” value is on record as 0.07 (0.03-0.10) %, the “No. with pentamer + cluster” value was 2 (29) and the “No. with pentamer + cluster (%)” value is given as 2 (29) %.

Turning to LMLGEFLKL [SurlM2, reference compound], in experiment [2], the “Median pentamer+/CD8+ cells (range)” value is 0.20 (0.20-0.20) %, the “No. with pentamer + cluster” value is 1 (11) and the “No. with pentamer + cluster (%)” value is on record as 1 (11) %.

In the case of “KLLTSMAISV [GPC3 563-572, peptide and HLA-A2.1 pentamer loaded with it]”, the “binding affinity” value in experiment [1] was “strong binding affinity”. Also, in experiment [2], the “Median pentamer+/CD8+ cells (range)” value is recorded as 0.45 (0.05-1.60) %, the “No. with pentamer + cluster” value was 4 (44), the “No. with pentamer + cluster (%)” value is 4 (44) % and the “PD-1 expression in pentamer-positive versus pentamer-negative CD8+ T-cells” value is recorded as “strong trend”.

Turning to “RLQPGLKWV [GPC3 44-52, peptide and HLA-A2.1 pentamer loaded with it]”, the “binding affinity” value in experiment [1] was “strong binding affinity”. Moreover, in experiment [2], the “Median pentamer+/CD8+ cells (range)” value is listed as 0.20 (0.10-0.30) %, the “No. with pentamer + cluster” value is listed as 3 (33), the “No. with pentamer + cluster (%)” value was 3 (33) % and the “PD-1 expression in pentamer-positive versus pentamer-negative CD8+ T-cells” value is recorded as “significantly greater”. In experiment [3], the “IFNγ secretion by expanded cells restimulated with cognate antigens” value is given as “minimal-to-absent” and the “expansion of pentamer-specific CD8+ T-cells” value was “readily detectable expansion”.

For “ELFDSLFPV [GPC3 169-178, peptide and HLA-A2.1 pentamer loaded with it]”, the “binding affinity” value in experiment [1] is “strong binding affinity”. In experiment [2], the “Median pentamer+/CD8+ cells (range)” value is recorded as 1.00 (0.20-1.60) %, the “No. with pentamer + cluster” value is recorded as 5 (63) and the “No. with pentamer + cluster (%)” value is listed as 5 (63) %.

Regarding “GILGFTFVL [Flu matrix, reference compound]”, in experiment [2], the “Median pentamer+/CD8+ cells (range)” value is recorded as 0.40 (0.30-1.30) %, the “No. with pentamer + cluster” value is given as 5 (56) and the “No. with pentamer + cluster (%)” value is 5 (56) %.

B1: Glypican-3 44-52 (RLQPGLKWV) (peptide)
peptide: RLQPGLKWV
notes: Synthetic 9 mer of human glypican-3 (NP-004475); also called GPC3 44-52; GPC344-52
Take B1: the binding result in experiment [4] is on record as “binds”.

B2: Glypican-3 142-151 (FEFVGEFFTD) (peptide)
peptide: FEFVGEFFTD
notes: Synthetic 10 mer of human glypican-3 (NP-004475); also called GPC3 142-151; GPC3142-151
B2: the binding result in experiment [4] is “binds”.

B3: Glypican-3 169-177 (ELFDSLFPV) (peptide)
peptide: ELFDSLFPV
notes: Synthetic 9 mer of human glypican-3 (NP-004475); also called GPC3 169-177; GPC3169-177
In the case of B3, in experiment [4], the binding result is “binds”.

B4: Glypican-3 563-572 (KLLTSMAISV) (peptide)
peptide: KLLTSMAISV
notes: Synthetic 10 mer of human glypican-3 (NP-004475); also called GPC3 563-572; GPC3563-572
In the case of B4, the binding result in experiment [4] is recorded as “binds”.
